# From PubChem BioAssay (NCI)
#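 Briefly, cells in 96-well plates were exposed to five compound concentrations for 48 h, and endpoints were estimated by linear interpolation. The concentration for full growth arrest is given as TGI.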
# Columns and labels:
# Experiment in all cases: NCI-60 cell line screen, 48 h
# DMS 273 small cell lung = tested on: DMS 273 small cell lung
# RXF-631 renal = tested on: RXF-631 renal
# SNB-78 CNS = tested on: SNB-78 CNS
# HOP-18 NSCLC = tested on: HOP-18 NSCLC
Compound,TGI (DMS 273 small cell lung) [µM],TGI (RXF-631 renal) [µM],TGI (SNB-78 CNS) [µM],TGI (HOP-18 NSCLC) [µM]
COc1ccccc1NC(=O)CC(=O)N1N=C(c2ccccc2)C(N=Nc2ccc(Cl)cc2)C1=O (stereo unspecified),> 100,> 100,> 100,
CC(=O)NNc1nc(C)c(C(=O)/C=C/c2ccc(Cl)c(Cl)c2)s1,> 100,> 100,> 100,> 100
C/C(=N/O)c1sc(-c2nc(C)c(/C(C)=N\O)s2)nc1C,> 100,> 100,> 100,> 100
NC(N)=NS(=O)(=O)c1ccc(NC(=O)c2cccc3c(N)c4ccccc4nc23)cc1,> 100,> 100,> 100,
CCCCCCCCCCCCC(Br)C(C)=O (stereo unspecified),> 100,> 100,> 100,> 100
O=C(Cc1nc2ccc([N+](=O)[O-])cc2[nH]c1=O)C(=O)Nc1ccccc1[N+](=O)[O-],> 100,,,
CC(C)C(Sc1nc(-c2ccccc2)c(-c2ccccc2)[nH]1)c1n[nH]c(=S)n1-c1ccccc1 (stereo unspecified),> 100,,> 100,
COC(=O)C(=O)C(/C(=N/N)C(=O)Nc1ccccc1C(N)=O)c1nc2ccc([N+](=O)[O-])cc2[nH]c1=O (stereo unspecified),> 100,,> 100,
O=C(O)CCN(CCCN(CCC(=O)O)CCC(=O)O)CCC(=O)O,> 100,> 100,,> 100
CC1=C(C(=O)CC(=O)C(=O)Nc2ccc(C)c(C)c2)Sc2ccccc2N1,> 100,,> 100,> 100
NC(CCCCNCc1ccccc1)C(=O)O (stereo unspecified),> 100,> 100,> 100,> 100
O=C(O)c1ccc([C@@H]2C(=O)N(O)[C@@H]3C=CC[C@@H]32)cc1,> 100,> 100,> 100,
COc1ccc(/C=C2\CCC(CCN3CCOCC3)C2=O)cc1 (stereo unspecified),> 100,,> 100,> 100
CCN(CC)Cc1cc(Nc2ccnc3ccc4nn(C)nc4c23)ccc1O,,31.3,44.9,
COc1cc(CNc2cnc3ccc(N)cc3n2)cc(OC)c1OC,> 100,,> 100,> 100
COc1ccc(/C=C/C(=O)c2sc(-c3cccnc3)nc2C)cc1,> 100,> 100,> 100,> 100
COC(=O)C(c1ccc(OC)cc1)N1C(=O)[C@@H](NC(=O)c2ccccc2)[C@H]1[C@@H](C)O (stereo partly specified),> 100,,> 100,
Cc1nc2c3c(ccc2[nH]c1=O)C(=O)c1ccccc1C3=O,,,,> 100
CC(C)OP(=O)(OC(C)C)C(=NCCN=C(NNc1ccccc1[N+](=O)[O-])P(=O)(OC(C)C)OC(C)C)NNc1ccccc1[N+](=O)[O-],> 100,,,
Cc1ccc(-c2nnc3s/c(=C\c4ccc(N(C)C)cc4)c(=O)n23)cc1,> 100,> 100,> 100,> 100
